Data reported in patent publication US20190290671A1, “HYPOLIPIDEMIC EFFECTS OF COMPOSITIONS COMPRISING BETA-GLUCOGALLIN” (priority 2018, published 2019).

Experiment: body weight of high fat diet fed rats
Assay type: in vivo, Albino Rat (Wistar)
Settings: HFD + 3 mg/kgbw
Experimental: Performance of the Test • Feed: The animals were fed with Normal diet (9 kcal/day) and High fat diet (50 kcal/day) throughout the acclimatization and experimental period. The normal diet and High Fat diet were prepared as follows.
Body weight of the animals was recorded in 0th, 15th, 25th, 40th, 60th and 84th day of experimental period. At 0th day, 1 ml Tail blood was collected from each animal of all the groups and serum was separated. At the end of the experimental period (84th day), the animals were sacrificed by cervical dislocation. Blood was collected and serum was separated by centrifugation and used for the analysis of biochemical parameters.
The test item was administered through oral route by gavage.
Experimental Methods • Measurement of Body weight • Estimation of Cholesterol (CHOD/POD Method) • Estimation of Triglycerides (GPO/POD Method) • Estimation of HDL Cholesterol (HDL Cholesterol Direct Reagent Kit, Beacon) • Determination of LDL Cholesterol (LDL Cholesterol Direct Reagent Kit, Beacon)

Question: Which results are given for `CC(C)c1c(C(=O)Nc2ccccc2)c(-c2ccccc2)c(-c2ccc(F)cc2)n1CC[C@@H](O)C[C@@H](O)CC(=O)O` [STATIN, Atrovastin]?
Answer: Mean Body Weight (0th Day): 108.33 ± 6.83 g; Mean Body Weight (15th Day): 127.50 ± 6.90 g; Mean Body Weight (25th Day): 139.16 ± 5.84 g; Mean Body Weight (40th Day): 155.83 ± 7.35 g; Mean Body Weight (60th Day): 165.83 ± 9.70 g; Mean Body Weight (84th Day): 172.50 ± 9.35 g
